Assay results taken from patent publication US20050255178A1, “Enhancing the effectiveness of an inhaled therapeutic gas” (priority 2004, published 2005).

Tests used:
awake lambs = test: U-46619-induced pulmonary hypertension in awake lambs: hemodynamics, gas exchange, cGMP release; type: in vivo
Procedure: In awake lambs instrumented with vascular catheters and a tracheostomy tube, the thromboxane analog U-46619 was infused intravenously to increase mean pulmonary arterial pressure (PAP) to 35 mm Hg. After a stabilization period, seven animals received an intravenous infusion of BAY 41-2272 (Alexis Biochemicals, Lausen, Switzerland) at 0.03, 0.1, and 0.3 mg·kg^−1·h^−1 administered for 30 minutes each. In another eight animals, inhaled NO (2, 10, and 20 ppm) was administered in random order for 10 minutes each followed by 15 minute NO-free periods. An intravenous infusion of BAY 41-2272 (0.1 mg·kg^−1·h^−1) was then started. After increasing the infusion of U-46619 to maintain PAP at 35 mmHg, NO was inhaled as before BAY 41-2272. In an additional eight lambs, which received an intravenous infusion of the NO synthase inhibitor, L-NAME (25 mg/kg+5 mg·kg^−1·h^−1), together with U-46619, NO was inhaled before and during the infusion of BAY 41-2272.
Data were analyzed using repeated measures ANOVA followed by Dunnett adjustment. A p<0.05 was considered statistically significant.

[1] = system: U-46619-induced pulmonary vasoconstriction; test: CO inhaled alone or in combination with BAY 41-2272 during U-46619-induced pulmonary vasoconstriction; type: in vivo
Description: Systemic hemodynamics, lung gas exchange, and transpulmonary cGMP release were also unchanged by CO inhalation. Arterial concentrations of carboxyhemoglobin gradually rose from 1.0±0.2% to 4.7±0.4% (P<0.01) and from 1.4±0.1% to 5.2±0.2% (P<0.01), respectively, after breathing 500 ppm CO alone or in combination with BAY 41-2272.

[2] = system: mouse model of pulmonary hypertension; test: Mouse model of pulmonary hypertension (U46619): pulmonary and systemic arterial pressures; type: in vivo, mice
Procedure: A mouse model of pulmonary hypertension was used to examine the combined effects of YC-1 and inhaled NO. Three mice (average weight 25 g) were anesthetized, their chest opened, catheters were placed in the carotid and pulmonary arteries, and pulmonary and systemic arterial pressures were recorded (FIG. 4). U46619, a thromboxane analogue was administered intravenously to induce pulmonary vasoconstriction. NO (4 parts per million) was added to the inspired gas, and pulmonary vasodilation was measured. Thereafter, NO inhalation was discontinued, and the duration of the pulmonary vasodilator effect was measured.
YC-1 was administered as boluses over one minute (10, 50 and 100 ug), and both pulmonary artery pressure and systemic blood pressure were measured. Thereafter, YC-1 was administered as an infusion (5 ug/min), and the rate of U46619 infusion was increased (2- to 3-fold) to re-establish pulmonary vasoconstriction. The pulmonary vasodilator response to breathing 4 ppm NO was measured, and duration of pulmonary vasodilation after discontinuing NO was assessed.

[3] = BAY 41-2272 0.1 mg·kg^−1·h^−1, L-NAME 25 mg/kg+5 mg·kg^−1·h^−1 iv, n=8
[4] = BAY 41-2272 0.1 mg·kg^−1·h^−1 iv with inhaled NO, P<0.05
[5] = BAY 41-2272 infusion with NO inhaled at 10 and 20 ppm
[6] = BAY 41-2272 infusion with NO inhaled at 10 and 20 ppm, P<0.05 vs. baseline PH
[7] = BAY 41-2272 iv infusion 0.03, 0.1, 0.3 mg·kg^−1·h^−1, 30 min each, n=7
[8] = during BAY 41-2272 infusion, inhalation of 10 and 20 ppm NO, P<0.01 vs. baseline PH
[9] = inhaled NO alone at 20 ppm, P<0.05
[10] = YC-1 boluses over one minute (10, 50 and 100 ug)

SMILES: Nc1nc(-c2nn(Cc3ccccc3F)c3ncccc23)ncc1C1CC1 [BAY 41-2272, 3-(4-amino-5-cyclopropylpyrimidine-2-yl)-1-(2-fluorobenzyl)-1H-pyrazolo[3,4-b]pyridine]
- pulmonary vasodilation induced by BAY 41-2272 in presence of L-NAME (awake lambs; [3]): but not pulmonary vasodilation
- systemic vasodilation induced by BAY 41-2272 in presence of L-NAME (awake lambs; [3]): abolished
- reduction of PAP induced by inhaled NO (awake lambs; BAY 41-2272 0.1 mg·kg^−1·h^−1 iv with inhaled NO 2, 10, 20 ppm, P<0.05): markedly enhanced
- reduction of PVRI induced by inhaled NO (awake lambs; [4]): markedly enhanced
- reduction of PVRI/SVRI induced by inhaled NO (awake lambs; [4]): markedly enhanced
- HR (awake lambs; [5]): remained unchanged
- MAP (awake lambs; [5]): remained unchanged
- central venous pressure (CVP) (awake lambs; [5]): remained unchanged
- reduction of right ventricle stroke work index (RVSWI) (awake lambs; BAY 41-2272 infusion with NO inhaled at 10 and 20 ppm vs inhaled NO alone, P<0.05): to a greater extent than did inhaled NO alone
- cardiac index (CI) (awake lambs; [6]): increments
- pulmonary capillary wedge pressure (PCWP) (awake lambs; [6]): minor reductions
- stroke volume index (SVI) (awake lambs; [6]): increments
- systemic vascular resistance index (SVRI) (awake lambs; [6]): minor reductions
- mean PAP (percent change from pre-treatment pulmonary hypertension value) (awake lambs; [7]): dose-dependent reductions
- pulmonary vascular resistance index (PVRI) (percent change from pre-treatment pulmonary hypertension value) (awake lambs; [7]): dose-dependent reductions
- reductions in mean PAP and PVRI compared with corresponding reductions in MAP and SVRI (awake lambs; BAY 41-2272 iv infusion 0.03-0.3 mg·kg^−1·h^−1, p<0.05): significantly greater
- increase of transpulmonary cGMP release (awake lambs; co-administration of BAY 41-2272 and inhaled NO vs inhaled NO alone, P<0.05): to a greater extent than did inhaled NO alone
- persistence of pulmonary vasodilation (T1/2) after NO was discontinued (awake lambs; during BAY 41-2272 infusion vs before, P<0.05): greater than that before the infusion
- P(A-a)O2 (awake lambs; [8]): reduced
- PaO2/FiO2 (awake lambs; [8]): augmented
- Qs/Qt (awake lambs; [8]): reduced
- plasma BAY 41-2272 concentrations (awake lambs; during the period of NO administrations, iv infusion 0.1 mg·kg^−1·h^−1): remained at a stable level
- plasma levels of BAY 41-2272 ([1]; in vivo): remained stable
- vasodilator effect on U-46619-induced pulmonary vasoconstriction ([1]; inhalation of CO following administration of / in combination with BAY 41-2272): no vasodilator effect

SMILES: [N]=O [NO, Nitric oxide]
- T1/2 of return of PAP to baseline pulmonary hypertension after NO was discontinued (awake lambs; inhaled NO alone): < 1 min
- arterial methemoglobin concentrations (awake lambs; inhaled NO alone): no significant changes
- pulmonary vasodilation (awake lambs; inhaled NO alone 2, 10, 20 ppm, 10 min each): dose-dependent, selective pulmonary vasodilation
- transpulmonary cGMP release (awake lambs; inhaled NO alone 10 and 20 ppm, P<0.01): increased
- P(A-a)O2 (awake lambs; [9]): reduced
- PaO2/FiO2 (awake lambs; [9]): increased
- Qs/Qt (awake lambs; [9]): reduced

SMILES: [C-]#[O+] [CO, carbon monoxide]
- lung gas exchange ([1]; CO inhalation): unchanged
- systemic hemodynamics ([1]; CO inhalation): unchanged
- transpulmonary cGMP release ([1]; CO inhalation): unchanged
- vasodilator effect on U-46619-induced pulmonary vasoconstriction ([1]; inhalation of CO alone): no vasodilator effect

SMILES: OCc1ccc(-c2nn(Cc3ccccc3)c3ccccc23)o1 [YC-1, 3-(5′-hydroxymethyl-2′-furyl)-1-benzylindazole]
- pulmonary vasodilator response to breathing NO ([2]; 4 ppm NO during YC-1 infusion (5 ug/min) vs NO alone): greater pulmonary vasodilator response than did breathing NO alone
- systemic vasodilation on addition of NO inhalation to YC-1 ([2]; 4 ppm NO, YC-1 infusion 5 ug/min): did not cause systemic vasodilation
- pulmonary vasodilation (pulmonary artery pressure) [2, 10]: induced both pulmonary and systemic vasodilation
- systemic vasodilation (systemic blood pressure) [2, 10]: induced both pulmonary and systemic vasodilation
- duration of pulmonary vasodilation after discontinuing NO inhalation ([2]; during YC-1 infusion (5 ug/min) vs before, P<0.01): greater during an infusion of YC-1 than before
